Test results taken from patent US20260356819A1, “OXOISOINDOLINYL-SUBSTITUTED […] DERIVATIVE AND USE THEREOF” (GLUETACS THERAPEUTICS (SHANGHAI) CO., LTD., priority 2023, published 2026).

How the values were obtained:
Assay type in all cases: cell-based
Conditions in all cases: compounds at 50 nM and 500 nM
IKZF3 = biological target: T1, IKZF3 (Homo sapiens, UniProt Q96SW2+Q9UKT9); experiment: Western blot degradation of IKZF3 in hPBMCs (24 h)
T1 construct: The supernatant was aspirated as the extracted total cell protein; endogenous in cells; host or cells: human peripheral blood mononuclear cells (hPBMCs)
Procedure, shortened: (§1)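 Read-out is Western blot band grayscale, divided by internal control band and normalised to give percent target protein remaining; degradation rate is 1 minus that value. Cells were human PBMCs exposed to compound at 50 nM and 500 nM for 24 hours.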

IKZF1 = biological target: T2, IKZF1 (Homo sapiens, UniProt Q13422+Q96SW2); experiment: Western blot degradation of IKZF1 in hPBMCs (24 h)
T2 construct: The supernatant was aspirated as the extracted total cell protein; endogenous in cells; host or cells: human peripheral blood mononuclear cells (hPBMCs)
Procedure, shortened: as §1

IKZF2 = biological target: T3, IKZF2 (Homo sapiens, UniProt Q96SW2+Q9UKS7); experiment: Western blot degradation of IKZF2 in hPBMCs (24 h)
T3 construct: The supernatant was aspirated as the extracted total cell protein; endogenous in cells; host or cells: human peripheral blood mononuclear cells (hPBMCs)
Procedure, shortened: as §1

WEE1 = biological target: T4, WEE1 (Homo sapiens, UniProt P30291+Q96SW2); experiment: Western blot degradation of WEE1 in hPBMCs (24 h)
T4 construct: The supernatant was aspirated as the extracted total cell protein; endogenous in cells; host or cells: human peripheral blood mononuclear cells (hPBMCs)
Procedure, shortened: as §1

GSPT1 = biological target: T5, GSPT1 (Homo sapiens, UniProt P15170+Q96SW2); experiment: Western blot degradation of GSPT1 in hPBMCs (24 h)
T5 construct: The supernatant was aspirated as the extracted total cell protein; endogenous in cells; host or cells: human peripheral blood mononuclear cells (hPBMCs)
Procedure, shortened: as §1

CK1α = biological target: T6, CK1α (Homo sapiens, UniProt P48729+Q96SW2); experiment: Western blot degradation of CK1α in hPBMCs (24 h)
T6 construct: The supernatant was aspirated as the extracted total cell protein; endogenous in cells; host or cells: human peripheral blood mononuclear cells (hPBMCs)
Procedure, shortened: as §1

T6 sequence (P48729 whole entry): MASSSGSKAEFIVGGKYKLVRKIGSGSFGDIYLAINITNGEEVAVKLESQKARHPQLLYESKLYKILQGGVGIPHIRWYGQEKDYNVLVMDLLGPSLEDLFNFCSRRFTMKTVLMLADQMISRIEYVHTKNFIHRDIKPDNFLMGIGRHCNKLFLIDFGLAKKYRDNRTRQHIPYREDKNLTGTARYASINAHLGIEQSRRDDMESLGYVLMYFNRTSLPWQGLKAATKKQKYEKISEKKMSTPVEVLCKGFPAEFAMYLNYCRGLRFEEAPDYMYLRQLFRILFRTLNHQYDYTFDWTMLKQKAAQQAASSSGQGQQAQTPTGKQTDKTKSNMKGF
T6 sequence (Q96SW2 whole entry): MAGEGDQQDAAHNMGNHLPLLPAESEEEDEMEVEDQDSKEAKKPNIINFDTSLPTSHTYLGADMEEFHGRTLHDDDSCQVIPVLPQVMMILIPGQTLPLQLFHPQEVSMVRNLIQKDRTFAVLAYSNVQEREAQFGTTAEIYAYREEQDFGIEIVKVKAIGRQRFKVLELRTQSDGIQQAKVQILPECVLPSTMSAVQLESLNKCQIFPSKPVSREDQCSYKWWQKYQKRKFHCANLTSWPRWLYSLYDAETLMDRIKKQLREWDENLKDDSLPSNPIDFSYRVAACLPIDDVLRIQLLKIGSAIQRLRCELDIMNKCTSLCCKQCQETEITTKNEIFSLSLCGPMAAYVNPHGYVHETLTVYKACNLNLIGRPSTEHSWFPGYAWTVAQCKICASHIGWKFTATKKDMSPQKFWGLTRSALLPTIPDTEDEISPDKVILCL
T6 sequence (Q16531 whole entry partner): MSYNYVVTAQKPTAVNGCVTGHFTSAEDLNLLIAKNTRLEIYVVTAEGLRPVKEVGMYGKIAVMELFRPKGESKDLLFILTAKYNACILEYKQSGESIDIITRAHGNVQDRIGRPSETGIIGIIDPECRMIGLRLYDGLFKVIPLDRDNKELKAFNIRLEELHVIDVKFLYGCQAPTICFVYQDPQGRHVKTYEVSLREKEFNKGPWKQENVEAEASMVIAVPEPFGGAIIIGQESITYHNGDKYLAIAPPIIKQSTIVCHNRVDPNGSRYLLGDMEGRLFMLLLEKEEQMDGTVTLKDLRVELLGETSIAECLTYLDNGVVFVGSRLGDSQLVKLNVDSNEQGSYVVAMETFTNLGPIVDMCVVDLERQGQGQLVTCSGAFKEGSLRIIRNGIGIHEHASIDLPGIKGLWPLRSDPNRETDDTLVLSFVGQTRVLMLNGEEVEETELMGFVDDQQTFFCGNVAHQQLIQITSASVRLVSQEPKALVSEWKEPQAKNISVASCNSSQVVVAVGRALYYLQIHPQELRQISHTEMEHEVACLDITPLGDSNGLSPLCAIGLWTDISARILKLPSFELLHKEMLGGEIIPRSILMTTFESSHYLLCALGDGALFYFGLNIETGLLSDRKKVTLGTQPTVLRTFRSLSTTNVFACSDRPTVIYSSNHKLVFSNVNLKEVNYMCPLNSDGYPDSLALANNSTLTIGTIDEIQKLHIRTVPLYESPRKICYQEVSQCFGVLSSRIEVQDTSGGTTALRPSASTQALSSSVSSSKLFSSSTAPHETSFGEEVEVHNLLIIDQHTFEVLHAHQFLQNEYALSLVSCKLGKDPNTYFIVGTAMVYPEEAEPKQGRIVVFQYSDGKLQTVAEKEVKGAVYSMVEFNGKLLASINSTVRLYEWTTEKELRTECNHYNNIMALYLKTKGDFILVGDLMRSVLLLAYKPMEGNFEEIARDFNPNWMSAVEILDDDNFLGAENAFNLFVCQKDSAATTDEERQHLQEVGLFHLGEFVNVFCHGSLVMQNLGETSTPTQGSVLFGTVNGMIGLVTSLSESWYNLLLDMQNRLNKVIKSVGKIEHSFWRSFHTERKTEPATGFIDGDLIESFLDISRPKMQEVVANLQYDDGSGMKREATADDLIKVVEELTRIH
T5 sequence (P15170 whole entry): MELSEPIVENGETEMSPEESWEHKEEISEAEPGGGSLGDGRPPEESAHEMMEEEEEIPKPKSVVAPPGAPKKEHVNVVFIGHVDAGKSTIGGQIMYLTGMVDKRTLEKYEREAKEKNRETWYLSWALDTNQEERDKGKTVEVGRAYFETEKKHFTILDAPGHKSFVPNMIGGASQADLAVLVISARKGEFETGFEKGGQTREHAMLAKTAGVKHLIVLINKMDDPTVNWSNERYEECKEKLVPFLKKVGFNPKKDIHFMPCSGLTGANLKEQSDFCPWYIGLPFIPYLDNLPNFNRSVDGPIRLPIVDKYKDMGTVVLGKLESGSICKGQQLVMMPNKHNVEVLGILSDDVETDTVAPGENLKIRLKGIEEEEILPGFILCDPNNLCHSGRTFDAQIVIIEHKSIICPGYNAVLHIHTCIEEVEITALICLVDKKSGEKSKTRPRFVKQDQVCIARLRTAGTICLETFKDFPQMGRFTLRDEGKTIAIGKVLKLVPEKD
T5 sequence (Q96SW2 whole entry): as the sequence (Q96SW2 whole entry) above
T5 sequence (Q16531 whole entry partner): as the sequence (Q16531 whole entry partner) above
T2 sequence (Q13422 whole entry): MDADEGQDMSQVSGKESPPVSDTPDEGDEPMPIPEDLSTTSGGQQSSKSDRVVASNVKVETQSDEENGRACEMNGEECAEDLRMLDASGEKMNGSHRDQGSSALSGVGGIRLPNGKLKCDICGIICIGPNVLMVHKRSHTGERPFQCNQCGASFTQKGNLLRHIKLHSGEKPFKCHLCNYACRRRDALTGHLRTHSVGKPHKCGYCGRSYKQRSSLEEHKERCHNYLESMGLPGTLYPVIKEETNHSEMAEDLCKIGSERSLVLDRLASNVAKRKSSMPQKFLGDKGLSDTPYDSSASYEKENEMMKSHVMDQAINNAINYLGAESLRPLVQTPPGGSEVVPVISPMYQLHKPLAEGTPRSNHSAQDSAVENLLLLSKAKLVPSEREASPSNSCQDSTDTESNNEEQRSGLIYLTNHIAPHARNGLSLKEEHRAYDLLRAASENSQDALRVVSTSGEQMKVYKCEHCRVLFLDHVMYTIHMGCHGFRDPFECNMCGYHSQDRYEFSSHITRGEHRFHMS
T2 sequence (Q96SW2 whole entry): as the sequence (Q96SW2 whole entry) above
T2 sequence (Q16531 whole entry partner): as the sequence (Q16531 whole entry partner) above
T3 sequence (Q9UKS7 whole entry): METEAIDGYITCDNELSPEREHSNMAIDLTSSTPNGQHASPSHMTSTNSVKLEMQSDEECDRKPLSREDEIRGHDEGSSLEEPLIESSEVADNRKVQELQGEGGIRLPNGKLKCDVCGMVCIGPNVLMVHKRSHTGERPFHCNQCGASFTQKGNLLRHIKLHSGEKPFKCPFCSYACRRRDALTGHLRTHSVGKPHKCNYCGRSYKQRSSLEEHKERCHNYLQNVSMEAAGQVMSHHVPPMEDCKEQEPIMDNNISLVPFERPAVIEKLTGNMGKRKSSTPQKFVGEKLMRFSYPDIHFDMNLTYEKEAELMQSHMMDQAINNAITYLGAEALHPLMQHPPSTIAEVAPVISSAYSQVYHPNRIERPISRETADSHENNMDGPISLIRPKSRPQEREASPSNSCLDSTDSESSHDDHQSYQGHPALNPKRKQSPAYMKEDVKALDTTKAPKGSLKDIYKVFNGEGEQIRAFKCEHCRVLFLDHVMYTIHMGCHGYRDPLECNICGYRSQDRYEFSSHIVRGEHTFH
T3 sequence (Q96SW2 whole entry): as the sequence (Q96SW2 whole entry) above
T3 sequence (Q16531 whole entry partner): as the sequence (Q16531 whole entry partner) above
T1 sequence (Q9UKT9 whole entry): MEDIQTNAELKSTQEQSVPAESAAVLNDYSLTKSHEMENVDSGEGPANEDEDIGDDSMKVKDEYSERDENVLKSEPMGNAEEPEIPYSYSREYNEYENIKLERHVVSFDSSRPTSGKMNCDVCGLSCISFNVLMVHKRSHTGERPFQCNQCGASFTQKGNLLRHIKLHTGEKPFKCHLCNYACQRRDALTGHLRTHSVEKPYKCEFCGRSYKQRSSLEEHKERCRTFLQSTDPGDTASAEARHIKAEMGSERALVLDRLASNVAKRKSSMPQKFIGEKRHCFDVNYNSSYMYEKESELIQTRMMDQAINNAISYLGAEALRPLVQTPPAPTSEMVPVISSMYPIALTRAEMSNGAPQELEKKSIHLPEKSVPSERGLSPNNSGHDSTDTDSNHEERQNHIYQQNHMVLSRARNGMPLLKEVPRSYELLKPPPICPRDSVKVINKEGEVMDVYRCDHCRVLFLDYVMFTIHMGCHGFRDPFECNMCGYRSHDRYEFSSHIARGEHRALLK
T1 sequence (Q96SW2 whole entry): as the sequence (Q96SW2 whole entry) above
T1 sequence (Q16531 whole entry partner): as the sequence (Q16531 whole entry partner) above

SMILES	IKZF3 substrate protein remaining % (IKZF3)	IKZF1 substrate protein remaining % (IKZF1)	IKZF2 substrate protein remaining % (IKZF2)	WEE1 substrate protein remaining % (WEE1)	GSPT1 substrate protein remaining % (GSPT1)	CK1α substrate protein remaining % (CK1α)
O=C1CCN(N2Cc3cc(CN4CCC(c5c[nH]c6ncccc56)CC4)ccc3C2=O)C(=O)N1 [GT-07576, 1-(5-((4-(1H-pyrrolo[2,3-b]pyridin-3-yl)piperidin-1-yl)methyl)-1-oxoisoindolin-2-yl)dihydropyrimidine-2,4(1H,3H)-dione]	B (80%< substrate protein remaining % ≤100%)	A (0% ≤ substrate protein remaining % ≤80%)	A (0% ≤ substrate protein remaining % ≤80%)	A (0% ≤ substrate protein remaining % ≤80%)	A (0% ≤ substrate protein remaining % ≤80%)	A (0% ≤ substrate protein remaining % ≤80%)
O=C1CCN(N2Cc3cc(CN4CCC(n5c(=O)[nH]c6cc(F)ccc65)CC4)ccc3C2=O)C(=O)N1 [GT-07579, 1-(5-((4-(5-fluoro-2-oxo-2,3-dihydro-1H-benzo[d]imidazol-1-yl)piperidin-1-yl)methyl)-1-oxoisoindolin-2-yl)dihydropyrimidine-2,4(1H,3H)-dione]	B (80%< substrate protein remaining % ≤100%)	A (0% ≤ substrate protein remaining % ≤80%)	A (0% ≤ substrate protein remaining % ≤80%)	A (0% ≤ substrate protein remaining % ≤80%)	A (0% ≤ substrate protein remaining % ≤80%)	B (80%< substrate protein remaining % ≤100%)
O=C1CCN(N2C(=O)c3ccc(CN4CC=C(c5c[nH]c6cc(F)ccc56)CC4)cc3C2=O)C(=O)N1 [GT-07580, 2-(2,4-dioxotetrahydropyrimidin-1(2H)-yl)-5-((4-(6-fluoro-1H-indol-3-yl)-3,6-dihydropyridin-1(2H)-yl)methyl)isoindoline-1,3-dione]	A (0% ≤ substrate protein remaining % ≤80%)	A (0% ≤ substrate protein remaining % ≤80%)	A (0% ≤ substrate protein remaining % ≤80%)	A (0% ≤ substrate protein remaining % ≤80%)	A (0% ≤ substrate protein remaining % ≤80%)	B (80%< substrate protein remaining % ≤100%)
Cn1cc(C2CCN(Cc3ccc4c(c3)C(=O)N(N3CCC(=O)NC3=O)C4=O)CC2)c2ccc(F)cc21 [GT-07581, 2-(2,4-dioxotetrahydropyrimidin-1(2H)-yl)-5-((4-(6-fluoro-1-methyl-1H-indol-3-yl)piperidin-1-yl)methyl)isoindoline-1,3-dione]	B (80%< substrate protein remaining % ≤100%)	A (0% ≤ substrate protein remaining % ≤80%)	A (0% ≤ substrate protein remaining % ≤80%)	A (0% ≤ substrate protein remaining % ≤80%)	A (0% ≤ substrate protein remaining % ≤80%)	B (80%< substrate protein remaining % ≤100%)
O=C1CCN(N2C(=O)c3ccc(CN4CCC(c5c[nH]c6ncccc56)CC4)cc3C2=O)C(=O)N1 [GT-07582, 5-((4-(1H-pyrrolo[2,3-b]pyridin-3-yl)piperidin-1-yl)methyl)-2-(2,4-dioxotetrahydropyrimidin-1(2H)-yl)isoindoline-1,3-dione]	B (80%< substrate protein remaining % ≤100%)	A (0% ≤ substrate protein remaining % ≤80%)	A (0% ≤ substrate protein remaining % ≤80%)	A (0% ≤ substrate protein remaining % ≤80%)	A (0% ≤ substrate protein remaining % ≤80%)	B (80%< substrate protein remaining % ≤100%)
O=C1CCN(N2C(=O)c3ccc(CN4CCC(n5c(=O)[nH]c6cc(F)ccc65)CC4)cc3C2=O)C(=O)N1 [GT-07583, 2-(2,4-dioxotetrahydropyrimidin-1(2H)-yl)-5-((4-(5-fluoro-2-oxo-2,3-dihydro-1H-benzo[d]imidazol-1-yl)piperidin-1-yl)methyl)isoindoline-1,3-dione]	B (80%< substrate protein remaining % ≤100%)	B (80%< substrate protein remaining % ≤100%)	B (80%< substrate protein remaining % ≤100%)	A (0% ≤ substrate protein remaining % ≤80%)	A (0% ≤ substrate protein remaining % ≤80%)	B (80%< substrate protein remaining % ≤100%)
O=C1CCN(N2Cc3cc(CN4CCC(N5CCCc6cc(F)ccc65)CC4)ccc3C2=O)C(=O)N1 [GT-07584, 1-(5-((4-(6-fluoro-3,4-dihydroquinolin-1(2H)-yl)piperidin-1-yl)methyl)-1-oxoisoindolin-2-yl)dihydropyrimidine-2,4(1H,3H)-dione]	B (80%< substrate protein remaining % ≤100%)	A (0% ≤ substrate protein remaining % ≤80%)	B (80%< substrate protein remaining % ≤100%)	A (0% ≤ substrate protein remaining % ≤80%)	A (0% ≤ substrate protein remaining % ≤80%)	B (80%< substrate protein remaining % ≤100%)
O=C1CCN(N2Cc3cc(CN4CCC(N5CCOc6cc(F)ccc65)CC4)ccc3C2=O)C(=O)N1 [GT-07585, 1-(5-((4-(7-fluoro-2,3-dihydro-4H-benzo[b][1,4]oxazin-4-yl)piperidin-1-yl)methyl)-1-oxoisoindolin-2-yl)dihydropyrimidine-2,4(1H,3H)-dione]	B (80%< substrate protein remaining % ≤100%)	A (0% ≤ substrate protein remaining % ≤80%)	B (80%< substrate protein remaining % ≤100%)	A (0% ≤ substrate protein remaining % ≤80%)	A (0% ≤ substrate protein remaining % ≤80%)	B (80%< substrate protein remaining % ≤100%)
O=C1CCN(N2Cc3cc(CN4CCC(N5C(=O)COc6cc(F)ccc65)CC4)ccc3C2=O)C(=O)N1 [GT-07586, 1-(5-((4-(7-fluoro-3-oxo-2,3-dihydro-4H-benzo[b][1,4]oxazin-4-yl)piperidin-1-yl)methyl)-1-oxoisoindolin-2-yl)dihydropyrimidine-2,4(1H,3H)-dione]	B (80%< substrate protein remaining % ≤100%)	A (0% ≤ substrate protein remaining % ≤80%)	B (80%< substrate protein remaining % ≤100%)	A (0% ≤ substrate protein remaining % ≤80%)	A (0% ≤ substrate protein remaining % ≤80%)	B (80%< substrate protein remaining % ≤100%)
O=C1CCN(N2Cc3cc(CN4CCC(C5CCOc6cc(F)ccc65)CC4)ccc3C2=O)C(=O)N1 (stereo not drawn) [GT-07587, 1-(5-((4-(7-fluorochroman-4-yl)piperidin-1-yl)methyl)-1-oxoisoindolin-2-yl)dihydropyrimidine-2,4(1H,3H)-dione]	B (80%< substrate protein remaining % ≤100%)	A (0% ≤ substrate protein remaining % ≤80%)	B (80%< substrate protein remaining % ≤100%)	A (0% ≤ substrate protein remaining % ≤80%)	A (0% ≤ substrate protein remaining % ≤80%)	B (80%< substrate protein remaining % ≤100%)
O=C1CCN(N2Cc3cc(CN4CCC(=C5CCOc6cc(F)ccc65)CC4)ccc3C2=O)C(=O)N1 [GT-07588, 1-(5-((4-(7-fluorochroman-4-ylidene)piperidin-1-yl)methyl)-1-oxoisoindolin-2-yl)dihydropyrimidine-2,4(1H,3H)-dione]	B (80%< substrate protein remaining % ≤100%)	B (80%< substrate protein remaining % ≤100%)	B (80%< substrate protein remaining % ≤100%)	B (80%< substrate protein remaining % ≤100%)	A (0% ≤ substrate protein remaining % ≤80%)	B (80%< substrate protein remaining % ≤100%)
O=C1CCN(N2Cc3cc(CN4CCC(c5cccc6c(F)cccc56)CC4)ccc3C2=O)C(=O)N1 [GT-07589, 1-(5-((4-(5-fluoronaphthalen-1-yl)piperidin-1-yl)methyl)-1-oxoisoindolin-2-yl)dihydropyrimidine-2,4(1H,3H)-dione]	B (80%< substrate protein remaining % ≤100%)	B (80%< substrate protein remaining % ≤100%)	B (80%< substrate protein remaining % ≤100%)	B (80%< substrate protein remaining % ≤100%)	A (0% ≤ substrate protein remaining % ≤80%)	B (80%< substrate protein remaining % ≤100%)
